Consider 2 compounds from US20260209777A1, “TARGETING GLYCOSYLPHOSPHATIDYLINOSITOL (GPI) PATHWAY PROTEINS TO TREAT OVARIAN CANCER” (UNIVERSITY OF MASSACHUSETTS, priority 2023, published 2026).

One test has as its system OVCAR8 cells. In words: In vitro phagocytosis assay of OVCAR8 cells by PBMC-derived M2 macrophages. The format is cell-based, human. The settings on record: bestatin 20 μM; for macrophage-mediated phagocytosis: OVCAR8, tosedostat 20 μM, ARM1 2 μM, vs DMSO; for phagocytosis of OVCAR8 cells: tosedostat 10 μM vs DMSO, anti-CD24 antibody (clone SN3) vs IgG (FIG. 9C). From the text:
Macrophage Generation and Stimulation: Primary human donor-derived macrophages were generated as described previously (Martinez, Curr Protocol Immunol 2012, Chapter 14:14.28.1-14.28.23). In brief, Leukopaks from anonymous donors were obtained from the Rhode Island Blood (Providence, RI) and peripheral blood […] (PBMCs) were isolated by density gradients centrifugation using Ficoll Paque Plus (Sigma-Aldrich, Cat #17-1440-02) followed by RBC lysis using RBC lysis buffer (eBioscience, Cat #00-4333-57). For monocyte isolation, PBMCs were incubated in Monocyte Attachment Medium (Sigma-Aldrich, Cat #C-28051) for 1 hour at 37° C. and 5% CO2 and then washed three times in Iscove's Modified Dulbecco's Medium (IMDM) (Gibco, Cat #12440053) to remove non-adherent cells. The remaining monocytes were detached and seeded in 96-well plates and cultured at 37° C. and 5% CO2 in IMDM supplemented with 10% FBS (Atlanta Biologicals, Cat #S11550) and 20 ng/ml recombinant human M-CSF (Peprotech, Cat #AF-300-25). After 4 days monocytes were then treated with 20 ng/ml recombinant human IL-4 (Peprotech, Cat #200-04) and 10 ng/mL recombinant human IL-10 (PeproTech, Cat #200-10) for another 3-4 days to obtain M2 polarized macrophages. Macrophage differentiation was confirmed morphologically using microscopy. M2-macrophage polarization was confirmed by immunophenotyping of the M2 marker CD206 using PE-conjugated anti-human anti-CD206 antibody (BioLegend, Cat #321106, clone 15-2, 1:100 dilution). In vitro Phagocytosis Assays: To facilitate the quantification of phagocytic events, we adapted a microscopy-based fluorescence phagocytosis […] al., J Immunol Methods 2009, 342(1-2):71-7; Lindner et al., Biotechniques 2020, 68(5):245-250) for use with a Celigo imaging cytometer. […] Cells were incubated with pHrodo Red, SE (Invitrogen, Cat #P36600) on ice for 30 min and then co-cultured with PBMC-derived M2 macrophages (prepared as described above) at a ratio of 1:2 (OVCAR8/B cells: macrophages) for 2 hours in a humidified 5% CO2 incubator at 37° C. Phagocytic events were quantified by counting the number of red fluorescent (pHrodo+) cells per well using a Celigo Imaging Cytometer (Nexcelom). EmGFP was used for the visualization of cancer cells in imaging Phagocytic events were also quantified using a previously-described flow cytometry-based assay (Barkal et al., Nature 2019, 572(7769):392-396; […] et al., Biomedicines 2022, 10(5):1175). In brief, M2 macrophages co-cultured with OVCAR8/EmGFP-luc cells were detached using TrypLE Express (GibcoTM, cat #12604013), stained with APC anti-human CD11b clone ICRF44 (BioLegend, Cat #982604) and analyzed by flow cytometry (BioRad ZE5). Double-positive EmGFP+CD11b+ cells were considered phagocytic events.

Another test deals with CD24 on normal B cells. Description: CD24 flow cytometry analysis in primary B cells. It counts as cell-based, human. The settings on record: 20 μM bestatin or 10 μM tosedostat vs DMSO (FIG. 9A). How it is done:
Flow Cytometry Analysis: For cell surface protein staining, 1×10^5-1×10^6 cells were first incubated with Fc receptor blocking solution, Human TruStain FcX™ (BioLegend, Cat #422301) for 10 minutes at room temperature. Cells were washed once in FACS buffer (1×PBS, 1.0% bovine serum albumin (BSA) (Sigma) and 0.2% sodium azide (Sigma), and then incubated with antibodies (given below) for 30 minutes at 4° C. in the dark. Cells were also stained with 7-AAD (Biolegend, Cat #420404) for dead cell exclusion, and flow cytometry analysis was performed using a Bio-Rad ZE5 Cell Analyzer. Following antibodies used in this study (all antibodies were used at 1:50 dilution unless otherwise noted): APC anti-human CD24 (BioLegend, Cat #311118, clone ML5), PE anti-human CD24 (eBioscience, Cat #12-0247-42, clone SN3), APC anti-human CD47 (BioLegend, Cat #323124, clone CC2C6), APC anti-human § 2-microglobulin (BioLegend, Cat #395711, clone A17082A), PE anti-human HLA-A2 (MHC-class I) (BioLegend, Cat #343305, clone BB7.2), APC anti-human CD11b (BioLegend, Cat #982604, clone ICRF44), APC anti-mouse F4/80 antibody (BioLegend, Cat #123116, clone BM8), APC-streptavidin (Thermo Fisher Scientific, Cat #SA1005, 1:100 dilution), PE anti-Calreticulin (Invitrogen, Catalog #MA5-15382, 1:200 dilution). […]

On to `CC(C)C[C@H](NC(=O)[C@@H](O)[C@H](N)Cc1ccccc1)C(=O)O` [bestatin], for which, in the test on OVCAR8 cells, the macrophage-mediated phagocytosis entry is “substantially increased” and the “phagocytosis of OVCAR8 cells” value is given as “susceptible”. Further, the “CD24 levels on B cells (MFI)” value with CD24 on normal B cells is on record as “not diminished”.

Take `CC(C)C[C@@H](C(=O)N[C@H](C(=O)OC1CCCC1)c1ccccc1)[C@H](O)C(=O)NO` [tosedostat]: in the test with OVCAR8 cells, the macrophage-mediated phagocytosis result was “increased” and the “phagocytosis of OVCAR8 cells” value was “susceptible”. Moreover, the “CD24 levels on B cells (MFI)” value in the test on CD24 on normal B cells was “not diminished”.
